Reference: ChEMBL document CHEMBL4619721, “Design, synthesis & biological evaluation of ferulic acid-based small molecule inhibitors against tumor-associated carbonic anhydrase IX” (Bioorg Med Chem, 2020)
Blank lines part the entries; values can stand above or below the compound they belong to. Activity calls are given as the source filed them. No cut-off for these calls is given here.

Tests used:
[1] = target: T1, Carbonic anhydrase 9 (Homo sapiens, UniProt Q16790);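 note: esterase activity of the enzyme on p-nitrophenyl acetate, followed by UV-Vis spectrophotometry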
Description: Inhibition of human carbonic anhydrase 9 using p-nitrophenyl acetate as substrate by UV-VIS spectrophotometric analysis

[2] = target: Carbonic anhydrase 2 (Homo sapiens, UniProt P00918); experiment: Inhibition of human carbonic anhydrase 2 using p-nitrophenyl acetate as substrate by UV-VIS spectrophotometric analysis
[3] = target: Carbonic anhydrase 5A, mitochondrial (Homo sapiens, UniProt P35218); experiment: Inhibition of human carbonic anhydrase 5A using p-nitrophenyl acetate as substrate by UV-VIS spectrophotometric analysis
Sequence of Carbonic anhydrase 5A, mitochondrial (P35218 whole entry): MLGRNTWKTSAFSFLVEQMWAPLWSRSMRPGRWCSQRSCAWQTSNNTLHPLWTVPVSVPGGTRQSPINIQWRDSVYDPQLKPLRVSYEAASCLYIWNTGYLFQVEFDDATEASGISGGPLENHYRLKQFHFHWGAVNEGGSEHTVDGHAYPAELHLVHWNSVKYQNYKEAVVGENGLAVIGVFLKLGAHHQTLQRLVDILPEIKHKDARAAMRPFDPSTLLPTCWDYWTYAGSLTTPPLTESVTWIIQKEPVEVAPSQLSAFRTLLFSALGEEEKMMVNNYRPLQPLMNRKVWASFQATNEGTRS

[4] = organism: Homo sapiens; experiment: Selectivity index, ratio of IC50 for human carbonic anhydrase 2 using p-nitrophenyl acetate as substrate to IC50 for human carbonic anhydrase 9 using p-nitrophenyl acetate as substrate
[5] = organism: Homo sapiens; experiment: Selectivity index, ratio of IC50 for human carbonic anhydrase 2 using p-nitrophenyl acetate as substrate to IC50 for human carbonic anhydrase 5A using p-nitrophenyl acetate as substrate by
[6] = target: T1, Carbonic anhydrase 9; experiment: Binding affinity to human carbonic anhydrase 9 assessed as dissociation constant by isothermal titration calorimetric assay
[7] = target: Albumin (Homo sapiens, UniProt P02768); experiment: Binding affinity to human serum albumin assessed as decrease in emission intensity by fluorescence emission spectrum based Stern-Volmer method; format: ADME; conditions: isolated protein
Sequence of Albumin (P02768 whole entry): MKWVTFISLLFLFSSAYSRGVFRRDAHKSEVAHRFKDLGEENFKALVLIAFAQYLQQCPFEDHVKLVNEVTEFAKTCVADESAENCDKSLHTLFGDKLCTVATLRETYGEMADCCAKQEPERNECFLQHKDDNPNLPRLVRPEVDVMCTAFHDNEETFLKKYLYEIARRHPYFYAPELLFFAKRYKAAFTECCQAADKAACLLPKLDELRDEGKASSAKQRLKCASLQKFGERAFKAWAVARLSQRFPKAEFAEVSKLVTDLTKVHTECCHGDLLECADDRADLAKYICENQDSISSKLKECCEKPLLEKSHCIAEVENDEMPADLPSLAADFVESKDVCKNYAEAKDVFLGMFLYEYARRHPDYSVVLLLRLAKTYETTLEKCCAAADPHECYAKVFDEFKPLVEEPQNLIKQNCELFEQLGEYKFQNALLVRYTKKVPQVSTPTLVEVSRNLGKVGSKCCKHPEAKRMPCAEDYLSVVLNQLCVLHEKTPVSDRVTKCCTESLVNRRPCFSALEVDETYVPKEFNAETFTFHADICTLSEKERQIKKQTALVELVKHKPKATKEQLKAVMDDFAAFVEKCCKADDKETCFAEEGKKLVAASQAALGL

[8] = tested on: HT-29; experiment: Cytotoxicity against human HT-29 cells assessed as reduction in cell viability after 48 hrs by MTT assay; format: functional, cell-based; conditions: HT-29, 48 h
[9] = tested on: HepG2; experiment: Cytotoxicity against human HepG2 cells assessed as reduction in cell viability after 48 hrs by MTT assay; format: functional, cell-based; conditions: HepG2, 48 h
[10] = tested on: HEK293; experiment: Cytotoxicity against HEK293 cells assessed as reduction in cell viability measured after 48 or 72 hrs by MTT assay; format: cell-based; conditions: human, hek293, 72 h
[11] = tested on: HT-29; experiment: Down regulation of carbonic anhydrase 9 protein expression in human HT-29 cells by immunoblotting analysis; format: functional, cell-based
[12] = tested on: HepG2; experiment: Down regulation of carbonic anhydrase 9 protein expression in human HepG2 cells by immunoblotting analysis; format: functional, cell-based
[13] = tested on: HT-29; experiment: Down regulation of HIF1-alpha protein expression in human HT-29 cells by immunoblotting analysis; format: functional, cell-based
[14] = tested on: HepG2; experiment: Down regulation of HIF1-alpha protein expression in human HepG2 cells by immunoblotting analysis; format: functional, cell-based
[15] = tested on: HT-29; experiment: Antimigratory activity against human HT-29 cells assessed as inhibition of cell migration at IC50 concentration after 24 hrs by crystal violet staining microscopy based transwell migration assay; format: functional
[16] = tested on: HepG2; experiment: Antimigratory activity against human HepG2 cells assessed as inhibition of cell migration at IC50 concentration after 24 hrs by crystal violet staining microscopy based transwell migration assay; format: functional
[17] = tested on: HT-29; experiment: Inhibition of colony formation in human HT-29 cells at IC50 concentration after 10 days by crystal violet staining based colony formation assay; format: functional, cell-based
[18] = tested on: HepG2; experiment: Inhibition of colony formation in human HepG2 cells at IC50 concentration after 10 days by crystal violet staining based colony formation assay; format: functional, cell-based
[19] = tested on: HT-29; experiment: Effect on ephithelial-mesenchymal transition in human HT-29 cells assessed as decrease in snail expression at IC50 concentration after 48 hrs by immunoblotting analysis; format: functional, cell-based
[20] = tested on: HepG2; experiment: Effect on ephithelial-mesenchymal transition in human HepG2 cells assessed as decrease in snail expression at IC50 concentration after 48 hrs by immunoblotting analysis; format: functional, cell-based
[21] = tested on: HT-29; experiment: Effect on ephithelial-mesenchymal transition in human HT-29 cells assessed as decrease in slug expression at IC50 concentration after 48 hrs by immunoblotting analysis; format: functional, cell-based
[22] = tested on: HepG2; experiment: Effect on ephithelial-mesenchymal transition in human HepG2 cells assessed as decrease in slug expression at IC50 concentration after 48 hrs by immunoblotting analysis; format: functional, cell-based
[23] = tested on: HT-29; experiment: Effect on ephithelial-mesenchymal transition in human HT-29 cells assessed as decrease in Zeb1 expression at IC50 concentration after 48 hrs by immunoblotting analysis; format: functional, cell-based
[24] = tested on: HepG2; experiment: Effect on ephithelial-mesenchymal transition in human HepG2 cells assessed as decrease in Zeb1 expression at IC50 concentration after 48 hrs by immunoblotting analysis; format: functional, cell-based
[25] = tested on: HT-29; experiment: Effect on ephithelial-mesenchymal transition in human HT-29 cells assessed as increase in E-cadherin expression at IC50 concentration after 48 hrs by immunoblotting analysis; format: functional, cell-based
[26] = tested on: HepG2; experiment: Effect on ephithelial-mesenchymal transition in human HepG2 cells assessed as increase in E-cadherin expression at IC50 concentration after 48 hrs by immunoblotting analysis; format: functional, cell-based
[27] = tested on: HT-29; experiment: Induction of apoptosis in human HT-29 cells assessed as increase in cleaved PARP expression at IC50 concentration after 48 hrs by immunoblotting analysis; format: functional, cell-based
[28] = tested on: HepG2; experiment: Induction of apoptosis in human HepG2 cells assessed as increase in cleaved PARP expression at IC50 concentration after 48 hrs by immunoblotting analysis; format: functional, cell-based
[29] = tested on: HT-29; experiment: Induction of apoptosis in human HT-29 cells assessed as early apoptotic cells at IC50 concentration after 24 hrs by Annexin V-FITC/propidium iodide staining based flow cytometry (reference value: 0.73%); format: functional
[30] = tested on: HT-29; experiment: Induction of apoptosis in human HT-29 cells assessed as late apoptotic cells at IC50 concentration after 24 hrs by Annexin V-FITC/propidium iodide staining based flow cytometry (reference value: 0.089%); format: functional
[31] = tested on: HT-29; experiment: Induction of apoptosis in human HT-29 cells assessed as necrotic cells at IC50 concentration after 24 hrs by Annexin V-FITC/propidium iodide staining based flow cytometry (reference value: 0.68%); format: functional
[32] = tested on: HepG2; experiment: Induction of apoptosis in human HepG2 cells assessed as early apoptotic cells at IC50 concentration after 24 hrs by Annexin V-FITC/propidium iodide staining based flow cytometry (reference value: 0%); format: functional
[33] = tested on: HepG2; experiment: Induction of apoptosis in human HepG2 cells assessed as late apoptotic cells at IC50 concentration after 24 hrs by Annexin V-FITC/propidium iodide staining-based flow cytometric analysis (reference value: 0%); format: functional
[34] = tested on: HepG2; experiment: Induction of apoptosis in human HepG2 cells assessed as necrotic cells at IC50 concentration after 24 hrs by Annexin V-FITC/propidium iodide staining-based flow cytometric analysis (reference value: 1.14%); format: functional
[35] = tested on: HT-29; experiment: Induction of apoptosis in human HT-29 cells assessed as viable cells at IC50 concentration after 24 hrs by Annexin V-FITC/propidium iodide staining based flow cytometry (reference value: 98.5%); format: functional
[36] = tested on: HepG2; experiment: Induction of apoptosis in human HepG2 cells assessed as viable cells at IC50 concentration after 24 hrs by Annexin V-FITC/propidium iodide staining based flow cytometry (reference value: 98.9%); format: functional
[37] = tested on: HT-29; experiment: Induction of apoptosis in human HT-29 cells at 8.44 uM after 24 hrs by Annexin V-FITC/propidium iodide staining based flow cytometry relative to control; format: functional
[38] = tested on: HepG2; experiment: Induction of apoptosis in human HepG2 cells at 11.22 uM after 24 hrs by Annexin V-FITC/propidium iodide staining based flow cytometry relative to control; format: functional
[39] = tested on: HT-29; experiment: Down regulation of carbonic anhydrase 9 mRNA expression in human HT-29 cells by RT-PCR analysis; format: functional, cell-based
[40] = tested on: HepG2; experiment: Down regulation of carbonic anhydrase 9 mRNA expression in human HepG2 cells by RT-PCR analysis; format: functional, cell-based

SMILES: COc1cc(/C=C/C(=O)O)ccc1OCc1cn(-c2ccccc2C)nn1
- IC50 [1]: 3.64 µM

SMILES: COc1cc(/C=C/C(=O)O)ccc1OCc1cn(-c2ccccc2[N+](=O)[O-])nn1
- IC50 [1]: 2.44 µM

SMILES: COc1cc(/C=C/C(=O)O)ccc1OCc1cn(-c2ccccc2Cl)nn1
- IC50 [1]: 14.5 µM

SMILES: COc1cc(/C=C/C(=O)O)ccc1OCc1cn(-c2ccccc2F)nn1
- IC50 [1]: 8.94 µM

SMILES: COc1cc(/C=C/C(=O)O)ccc1OCc1cn(-c2cccc(F)c2)nn1
- IC50 [1]: 12.2 µM

SMILES: COc1cc(/C=C/C(=O)O)ccc1O [FERULATE]
- IC50 [2]: 6.44 µM
- IC50 [1]: 9.39 µM
- IC50 [3]: 8.86 µM
- Ratio IC50 [4]: 0.7
- Ratio IC50 [5]: 0.7

SMILES: COc1cc(/C=C/C(=O)O)ccc1OCc1cn(-c2cccc(Cl)c2)nn1
- IC50 [1]: 1.37 µM

SMILES: COc1cc(/C=C/C(=O)O)ccc1OCc1cn(-c2cccc([N+](=O)[O-])c2)nn1
- IC50 [2]: 1.99 µM
- IC50 [1]: 0.024 µM
- IC50 [3]: 1.1 µM
- Kd [6]: 29 µM
- Ka [7]: 5.46 ×10⁴ /M
- IC50 [8]: 8.44 µM
- IC50 [9]: 11.2 µM
- Activity [10]: Non-Toxic
- Activity [11]: Active
- Activity [12]: Active
- Activity [13]: Active
- Activity [14]: Active
- Activity [15]: Active
- Activity [16]: Active
- inhibition [17]: Active
- inhibition [18]: Active
- Activity [19]: Active
- Activity [20]: Active
- Activity [21]: Active
- Activity [22]: Active
- Activity [23]: Active
- Activity [24]: Active
- Activity [25]: Active
- Activity [26]: Active
- Activity [27]: Active
- Activity [28]: Active
- Activity [29]: 2.29%
- Activity [30]: 10.5%
- Activity [31]: 11.6%
- Activity [32]: 2.17%
- Activity [33]: 6.6%
- Activity [34]: 10.3%
- Activity [35]: 75.6%
- Activity [36]: 80.9%
- Activity [37]: 24.44%
- Activity [38]: 19.22%
- Activity [39]: Active
- Activity [40]: Active

Now from value to compound:

- IC50 [1]: 0.771 µM
SMILES: COc1cc(/C=C/C(=O)O)ccc1OCc1cn(-c2ccc(Cl)cc2)nn1

- IC50 [1]: 5.24 µM
SMILES: COc1cc(/C=C/C(=O)O)ccc1OCc1cn(-c2cccc(C)c2)nn1

- IC50 [1]: 0.92 µM
SMILES: COc1cc(/C=C/C(=O)O)ccc1OCc1cn(-c2ccc(C(=O)O)cc2)nn1

- IC50 [1]: 4.22 µM
SMILES: COc1cc(/C=C/C(=O)O)ccc1OCc1cn(-c2ccc(C)cc2)nn1

- IC50 [2]: > 20 µM
- IC50 [1]: > 20 µM
- IC50 [3]: > 20 µM
SMILES: COc1cc(/C=C/C(=O)O)ccc1OCc1cn(-c2ccccc2)nn1

- IC50 [1]: 4.76 µM
SMILES: COc1ccc(-n2cc(COc3ccc(/C=C/C(=O)O)cc3OC)nn2)cc1

- IC50 [1]: 1.45 µM
SMILES: COc1cc(/C=C/C(=O)O)ccc1OCc1cn(-c2ccc([N+](=O)[O-])cc2)nn1

- IC50 [1]: 2.6 µM
SMILES: COc1cc(/C=C/C(=O)O)ccc1OCc1cn(-c2ccccc2OC)nn1

- IC50 [1]: 7.64 µM
SMILES: COc1cc(/C=C/C(=O)O)ccc1OCc1cn(-c2ccc(F)cc2)nn1

- IC50 [1]: 1.96 µM
SMILES: COc1cccc(-n2cc(COc3ccc(/C=C/C(=O)O)cc3OC)nn2)c1
